Values of other authors as cited in US7592371B2, “External preparation” (Medrx Co., Ltd., priority 2004, dated 2009).

Conditions: oral administration

COc1ccc(C=CC(=O)Nc2ccccc2C(=O)O)cc1OC [tranilast, N-(3,4-Dimethoxycinnamoyl) anthranilic acid]
side effects: serious side effects such as hepatic dysfunction and renal dysfunction
